Data: patent publication US20260199239A1, “IONIZABLE LIPIDS WITH MALONATE TAILS” (ModernaTX, Inc., priority 2022, published 2026)
“And” between values parts separate entries of the source, which are not always exact repeats. Identical values can stand only once.

What was measured:
[1] = Endotoxin content of LNP formulation; details: LNP lipid:PEG-1:DSPC:Cholesterol 48:2:11:39, hEPO mRNA
From the text: (§1) LNPs comprising ionizable lipids described herein were formulated according to Table 2 and the following general procedure.

[2] = mRNA encapsulation by the LNP (% EE, total mRNA in TX); format: physicochemical; details: LNP lipid:PEG-1:DSPC:Cholesterol 48:2:11:39, hEPO mRNA
Description: For nanoparticle compositions including an RNA, a QUANT-IT™ RIBOGREEN® RNA assay (Invitrogen Corporation Carlsbad, CA) can be used to evaluate the encapsulation of an RNA by the nanoparticle composition. The samples are diluted to a concentration of approximately 5 μg/mL in a TE buffer solution (10 mM Tris-HCl, 1 mM EDTA, pH 7.5). 50 μL of the diluted samples are transferred to a polystyrene 96 well plate and either 50 μL of TE buffer or 50 μL of a 2% Triton X-100 solution is added to the wells. The plate is incubated at a temperature of 37° C. for 15 minutes. The RIBOGREEN® reagent is diluted 1:100 in TE buffer, and 100 μL of this solution is added to each well. The fluorescence intensity can be measured using a fluorescence plate reader (Wallac Victor 1420 Multilablel Counter; Perkin Elmer, Waltham, MA) at an excitation wavelength of, for example, about 480 nm and an emission wavelength of, for example, about 520 nm. The fluorescence values of the reagent blank are subtracted from that of each of the samples and the percentage of free RNA is determined by dividing the fluorescence intensity of the intact sample (without addition of Triton X-100) by the fluorescence value of the disrupted sample (caused by the addition of Triton X-100).
The efficiency of encapsulation of a therapeutic and/or prophylactic agent describes the amount of therapeutic and/or prophylactic agent that is encapsulated or otherwise associated with an LNP after preparation, relative to the initial amount provided. The encapsulation efficiency is desired to be high (e.g., close to 100%). The encapsulation efficiency may be measured, for example, by comparing the amount of therapeutic and/or prophylactic agent in a solution containing a loaded LNP before and after breaking up the loaded LNP with one or more organic solvents or detergents. Fluorescence may be used to measure the amount of free therapeutic and/or prophylactic agent (e.g., RNA) in a solution. For the loaded LNPs formulated with lipids of the disclosure, the encapsulation efficiency of a therapeutic and/or prophylactic agent is at least 50%, for example 50%, 55%, 60%, 65%, 70%, 75%, 80%, 85%, 90%, 91%, 92%, 93%, 94%, 95%, 96%, 97%, 98%, 99%, or 100%. In some embodiments, the encapsulation efficiency is at least 80%. In some embodiments, the encapsulation efficiency is at least 90%. In some embodiments, the encapsulation efficiency of the therapeutic and/or prophylactic agent is between 80% and 100%.
as §1
(§2) General procedure for one-pot LNP formation: Lipid stock solutions in ethanol are mixed with mRNA in 25 mM acetate solution at a 3:1 ratio in a microfluidic mixer. The resulting LNPs, which are at approximately pH 5 and 25% EtOH, are buffer exchanged by dialysis into the storage buffer. The LNP solutions are then concentrated by Amicon® and purified by a 0.2 uM sterile filter.

[3] = Osmolality of LNP formulation; format: physicochemical; details: LNP formulation in 20 mM Tris 8% Sucrose storage buffer
From the text: as §1

[4] = pH of LNP formulation; format: physicochemical; details: LNP formulation in 20 mM Tris 8% Sucrose storage buffer
From the text: as §1

[5] = LNP particle size and polydispersity index (PDI); format: physicochemical; details: LNP lipid:PEG-1:DSPC:Cholesterol 48:2:11:39, hEPO mRNA, 20 mM Tris 8% Sucrose pH 7.4
Description: A Zetasizer Nano ZS (Malvern Instruments Ltd, Malvern, Worcestershire, UK) can be used to determine the particle size, the polydispersity index (PDI) and the zeta potential of the nanoparticle compositions in 1×PBS in determining particle size and 15 mM PBS in determining zeta potential.
LNPs may be characterized by a variety of methods. For example, microscopy (e.g., transmission electron microscopy or scanning electron microscopy) may be used to examine the morphology and size distribution of a nanoparticle composition. Dynamic light scattering or potentiometry (e.g., potentiometric titrations) may be used to measure zeta potentials. Dynamic light scattering may also be utilized to determine particle sizes. Instruments such as the Zetasizer Nano ZS (Malvern Instruments Ltd, Malvern, Worcestershire, UK) may also be used to measure multiple characteristics of a nanoparticle composition, such as particle size, polydispersity index, and zeta potential.
as §1, §2

[6] = tested on: hEPO protein expression; assay: hEPO protein expression in vivo after systemic administration of LNPs
Description: In order to monitor how effectively various nanoparticle compositions deliver therapeutic and/or prophylactic agents to targeted cells, different nanoparticle compositions including a particular therapeutic and/or prophylactic agent (for example, a modified or naturally occurring RNA such as an mRNA) are prepared and administered to animal populations. Animals (e.g., mice, rats, or non-human primates) are intravenously, intramuscularly, intraarterially, or intratumorally administered a single dose including a nanoparticle composition comprising a lipid of the disclosure and an mRNA expressing a protein, e.g., human erythropoietin (hEPO) or luciferase. A control composition including PBS may also be employed.
Upon administration of nanoparticle compositions to an animal, dose delivery profiles, dose responses, and toxicity of particular formulations and doses thereof can be measured by enzyme-linked immunosorbent assays (ELISA), bioluminescent imaging, or other methods. For nanoparticle compositions including mRNA, time courses of protein expression can also be evaluated. Samples collected from the animals for evaluation may include blood, sera, and tissue (for example, muscle tissue from the site of an intramuscular injection and internal tissue); sample collection may involve sacrifice of the animals.
ELISA test kits may provide hEPO concentrations in milli International Units per mL (mIU/mL), e.g., per mL of tested serum. Typically, the EPO concentration of unknown sample is calculated from a calibration curve. Standards (used for the calibration curve) are calibrated according to the 2. IRP WHO preparation. In some embodiments, mIU/mL corresponds to […]. Nanoparticle compositions including mRNA are useful in the evaluation of the efficacy and usefulness of various formulations for the delivery of therapeutic and/or prophylactic agents. Higher levels of protein expression induced by administration of a composition including an mRNA will be indicative of higher mRNA translation and/or nanoparticle composition mRNA delivery efficiencies. As the non-RNA components are not thought to affect translational machineries themselves, a higher level of protein expression is likely indicative of a higher efficiency of delivery of the therapeutic and/or prophylactic agent by a given nanoparticle composition relative to other nanoparticle compositions or the absence thereof.
In some embodiments, an in vivo expression assay may be used to assess potency of expression of lipids of the disclosure. In some embodiments, the protein expression (hEPO) may be measured in mice following administration of a nanoparticle comprising a lipid of the disclosure (e.g., a loaded LNP). In some embodiments, lipid nanoparticles of the instant disclosure may be intravenously administered to mice (e.g., CD-1 mice).
In some embodiments, the concentration of hEPO in serum may be tested after administration (e.g., about six hours after injection). In some embodiments, residual levels of the lipids of the disclosure in organs or tissue of the subject after administration (e.g., 6 h, 12 h, 18 h, 24 h, 36h, or 48 h after administration) are measured. In some embodiments, the residual levels of the lipids of the disclosure in the liver are measured. In some embodiments, an in vitro expression assay may be used to assess nanoparticles of the disclosure. In some embodiments, cells (e.g., HeLa) may be plated in an imaging plate (e.g., poly-D-lysine coated) and cultured in serum (e.g., human serum, mouse serum, cynomolgus monkey serum or fetal bovine serum). In some embodiments, lipid nanoparticles of the disclosure comprising an mRNA expressing fluorescent protein (e.g., green fluorescent protein (GFP)) and a fluorescent lipid (e.g., rhodamine-DOPE) may be added to the plate and the plate imaged for uptake and expression. In some embodiments, expression may be evaluated by measuring fluorescence (e.g., from GFP). […]

[7] = Table 3A groups 1-8, ratio to L5 LNP
[8] = Table 3B groups 1A-8A, ratio to L5 LNP

Row | SMILES | Endotoxin (EU/mL) [1] [EU/mL] | % EE [2] | Osmolality (mOsm/kg) [3] | pH [4] | PDI [5] | Size (nm) [5] | 6 hr protein expression ratio cf. L5 [6, 7] | 6 hr protein expression ratio cf. L5 [6, 8] | 24 hr protein expression ratio cf. L5 [6, 7] | 24 hr protein expression ratio cf. L5 [6, 8]
1 | CCCCCCCCC(CCCCCCCC)OC(=O)CCCCCCCN(CCO)CCCCCCC(C(=O)OCCCCCC)C(=O)OCCCCCC [Compound M1, Dihexyl 2-(6-((8-(heptadecan-9-yloxy)-8-oxooctyl)(2-hydroxyethyl)amino)hexyl)malonate] | 2.4 | 96.9% and 94.1% | 314 mOsm/kg and 320 mOsm/kg | 7.452 | 0.164 and 0.128 | 57.0 nm and 58.7 nm | 0.9 | 1.70 | 0.9 | 1.46
2 | CCCCCCCCC(CCCCCCCC)OC(=O)CCCCCCCN(CCCCCCC(C(=O)OCCCCCC)C(=O)OCCCCCC)CCCNC(=O)C1CC1 [Compound M6, Dihexyl 2-(6-((3-(cyclopropanecarboxamido)propyl)(8-(heptadecan-9-yloxy)-8-oxooctyl)amino)hexyl)malonate] | <2 | 67.8% | 317 mOsm/kg | 7.450 | 0.418 | 104.9 nm | – | 0.82 | – | 0.81
